Experimental data reported in ChEMBL document CHEMBL1909046, “DrugMatrix in vitro pharmacology data”.
pIC50, pKi: −log10 of the molar value.

Assays:
[1] = molecular target: Nitric oxide synthase 1 (Rattus norvegicus, UniProt P29476); type: tissue-based, Cerebellum; note: in other assays of this panel Not Active means under 50% inhibition at 10 µM
[2] = molecular target: 5-hydroxytryptamine receptor 6 (Homo sapiens, UniProt P50406); type: cell membranes, HeLa, Membrane; conditions: hela; note: in other assays of this panel Not Active means under 50% inhibition at 10 µM
[3] = DRUGMATRIX: Imidazoline I2, Central radioligand binding (ligand: [3H] Idazoxan); type: cell membranes, Rattus norvegicus, Wistar, Cerebral cortex, Membrane; conditions: Not Active = under 50% inhibition at 10 µM
[4] = molecular target: T1, Estrogen receptor (Homo sapiens, UniProt P03372); conditions: sf9; note: in other assays of this panel Not Active means under 50% inhibition at 10 µM
T1 sequence (P03372 whole entry): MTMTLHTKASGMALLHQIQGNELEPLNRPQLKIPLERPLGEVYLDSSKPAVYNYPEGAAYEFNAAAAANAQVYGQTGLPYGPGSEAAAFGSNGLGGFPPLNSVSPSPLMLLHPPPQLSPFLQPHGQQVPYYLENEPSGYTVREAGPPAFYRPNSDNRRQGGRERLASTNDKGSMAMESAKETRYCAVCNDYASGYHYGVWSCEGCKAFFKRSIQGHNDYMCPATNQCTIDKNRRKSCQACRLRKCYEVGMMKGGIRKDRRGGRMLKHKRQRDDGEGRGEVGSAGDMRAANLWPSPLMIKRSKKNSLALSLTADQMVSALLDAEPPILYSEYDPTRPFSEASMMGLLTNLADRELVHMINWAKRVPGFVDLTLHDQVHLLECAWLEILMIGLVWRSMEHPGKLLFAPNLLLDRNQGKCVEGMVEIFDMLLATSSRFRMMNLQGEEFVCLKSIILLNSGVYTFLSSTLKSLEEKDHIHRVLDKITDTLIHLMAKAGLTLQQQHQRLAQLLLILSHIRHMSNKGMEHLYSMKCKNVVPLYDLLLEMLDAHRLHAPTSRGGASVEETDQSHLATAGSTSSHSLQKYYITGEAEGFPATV

[5] = molecular target: C-C chemokine receptor type 2 (Homo sapiens, UniProt P41597); type: cell membranes, Membrane; conditions: cho-k1; note: in other assays of this panel Not Active means under 50% inhibition at 10 µM
[6] = molecular target: C-C chemokine receptor type 5 (Homo sapiens, UniProt P51681); type: cell membranes, Membrane; conditions: hek293; note: in other assays of this panel Not Active means under 50% inhibition at 10 µM
[7] = DRUGMATRIX: Glutamate, NMDA, Phencyclidine radioligand binding (ligand: [3H] TCP); type: cell membranes, Rattus norvegicus, Wistar, Cerebral cortex, Membrane; conditions: Not Active = under 50% inhibition at 10 µM

Sequence of 5-hydroxytryptamine receptor 6 (P50406 whole entry): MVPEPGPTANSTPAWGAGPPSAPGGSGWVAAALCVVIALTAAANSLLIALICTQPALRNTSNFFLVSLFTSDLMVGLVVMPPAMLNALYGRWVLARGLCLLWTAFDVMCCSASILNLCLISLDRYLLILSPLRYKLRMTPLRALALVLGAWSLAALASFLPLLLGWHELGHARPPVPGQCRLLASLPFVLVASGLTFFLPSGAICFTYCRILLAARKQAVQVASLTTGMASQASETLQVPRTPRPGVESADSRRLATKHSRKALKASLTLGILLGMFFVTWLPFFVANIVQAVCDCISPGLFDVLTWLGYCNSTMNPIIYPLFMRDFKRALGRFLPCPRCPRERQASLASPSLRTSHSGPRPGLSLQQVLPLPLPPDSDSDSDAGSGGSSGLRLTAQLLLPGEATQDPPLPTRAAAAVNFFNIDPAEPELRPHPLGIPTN
Sequence of C-C chemokine receptor type 2 (P41597 whole entry): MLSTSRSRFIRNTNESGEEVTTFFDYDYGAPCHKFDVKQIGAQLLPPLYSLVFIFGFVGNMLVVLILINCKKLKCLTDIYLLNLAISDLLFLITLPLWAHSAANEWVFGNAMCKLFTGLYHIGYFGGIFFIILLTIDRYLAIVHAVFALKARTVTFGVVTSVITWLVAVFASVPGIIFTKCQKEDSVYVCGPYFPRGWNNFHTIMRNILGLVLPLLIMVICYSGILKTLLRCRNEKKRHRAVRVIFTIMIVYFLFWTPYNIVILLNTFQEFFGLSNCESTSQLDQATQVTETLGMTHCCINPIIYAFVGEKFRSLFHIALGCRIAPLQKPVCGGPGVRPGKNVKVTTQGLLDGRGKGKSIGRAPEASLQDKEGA
Sequence of C-C chemokine receptor type 5 (P51681 whole entry): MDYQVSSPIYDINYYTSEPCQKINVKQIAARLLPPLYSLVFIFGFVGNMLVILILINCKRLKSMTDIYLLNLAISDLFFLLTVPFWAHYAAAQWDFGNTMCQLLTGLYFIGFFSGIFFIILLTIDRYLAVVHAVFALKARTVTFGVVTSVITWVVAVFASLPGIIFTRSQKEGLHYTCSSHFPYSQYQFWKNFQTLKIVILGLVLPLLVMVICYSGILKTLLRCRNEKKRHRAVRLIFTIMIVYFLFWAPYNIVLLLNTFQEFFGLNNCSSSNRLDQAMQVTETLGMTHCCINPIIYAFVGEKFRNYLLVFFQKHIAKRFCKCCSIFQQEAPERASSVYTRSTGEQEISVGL
Sequence of Nitric oxide synthase 1 (P29476 whole entry): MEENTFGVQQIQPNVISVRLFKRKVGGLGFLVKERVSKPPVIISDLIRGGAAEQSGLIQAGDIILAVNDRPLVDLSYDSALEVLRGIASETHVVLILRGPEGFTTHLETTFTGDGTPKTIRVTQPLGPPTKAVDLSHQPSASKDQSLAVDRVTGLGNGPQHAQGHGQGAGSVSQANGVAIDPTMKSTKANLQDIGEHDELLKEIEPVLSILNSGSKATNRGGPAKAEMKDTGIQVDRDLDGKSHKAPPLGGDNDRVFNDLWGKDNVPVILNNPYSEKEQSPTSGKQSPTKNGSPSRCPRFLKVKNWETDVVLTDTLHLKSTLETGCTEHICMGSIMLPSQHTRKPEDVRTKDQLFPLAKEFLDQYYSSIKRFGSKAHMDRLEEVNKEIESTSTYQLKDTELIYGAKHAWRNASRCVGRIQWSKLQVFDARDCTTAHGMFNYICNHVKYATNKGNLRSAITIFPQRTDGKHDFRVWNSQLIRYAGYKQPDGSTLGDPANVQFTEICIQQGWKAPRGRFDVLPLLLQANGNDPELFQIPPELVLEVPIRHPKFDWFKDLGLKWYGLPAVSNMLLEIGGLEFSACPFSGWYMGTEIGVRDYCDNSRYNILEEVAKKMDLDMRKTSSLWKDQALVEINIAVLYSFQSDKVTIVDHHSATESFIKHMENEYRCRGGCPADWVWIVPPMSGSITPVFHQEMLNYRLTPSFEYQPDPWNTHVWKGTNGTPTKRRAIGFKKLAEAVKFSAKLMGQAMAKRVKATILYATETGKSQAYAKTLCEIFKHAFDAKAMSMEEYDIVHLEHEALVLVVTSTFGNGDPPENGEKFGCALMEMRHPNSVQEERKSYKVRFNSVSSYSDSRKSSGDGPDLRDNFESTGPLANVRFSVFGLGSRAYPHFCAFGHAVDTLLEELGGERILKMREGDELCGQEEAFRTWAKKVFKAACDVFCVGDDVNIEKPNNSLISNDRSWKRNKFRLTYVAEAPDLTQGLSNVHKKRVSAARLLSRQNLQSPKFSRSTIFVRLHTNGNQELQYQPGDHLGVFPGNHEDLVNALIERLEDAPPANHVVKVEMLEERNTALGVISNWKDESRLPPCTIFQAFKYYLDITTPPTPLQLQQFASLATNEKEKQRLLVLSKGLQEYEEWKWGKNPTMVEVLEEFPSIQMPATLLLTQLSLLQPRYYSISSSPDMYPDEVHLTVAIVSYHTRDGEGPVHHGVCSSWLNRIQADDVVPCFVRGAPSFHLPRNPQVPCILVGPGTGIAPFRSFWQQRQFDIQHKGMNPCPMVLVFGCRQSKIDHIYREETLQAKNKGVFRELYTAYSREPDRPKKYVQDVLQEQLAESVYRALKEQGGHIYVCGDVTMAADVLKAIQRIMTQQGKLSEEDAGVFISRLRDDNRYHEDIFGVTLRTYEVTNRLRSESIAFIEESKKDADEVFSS

CCOc1nc2cccc(C(=O)O)c2n1Cc1ccc(-c2ccccc2-c2nnn[nH]2)cc1
Not Active: IC50 [1] | IC50 [2] | IC50 [3] | Ki [3] | IC50 [4] | IC50 [5] | IC50 [6] | IC50 [7] | Ki [7]

O=C(O)CCCc1cccs1
Not Active: IC50 [1] | IC50 [2] | IC50 [3] | Ki [3] | IC50 [4] | IC50 [5] | IC50 [6] | IC50 [7] | Ki [7]

COc1ccccc1N
Not Active: IC50 [1] | IC50 [2] | IC50 [3] | Ki [3] | IC50 [5] | IC50 [6] | IC50 [7] | Ki [7]

O=C(c1ccccc1F)N1CCC(Cc2ccccc2)CC1
Not Active: IC50 [1] | IC50 [2] | IC50 [3] | Ki [3] | IC50 [4] | IC50 [5] | IC50 [6] | IC50 [7] | Ki [7]

Cc1c(O)cccc1C(=O)N[C@@H](CSc1ccccc1)[C@H](O)CN1C[C@H]2CCCC[C@H]2C[C@H]1C(=O)NC(C)(C)C
Not Active: IC50 [1] | IC50 [2] | IC50 [3] | Ki [3] | IC50 [5] | IC50 [6] | IC50 [7] | Ki [7]

C[C@H]1O[C@H](O[C@H]2[C@H](O)[C@@H](O)[C@@H](O[C@H]3[C@H](O)[C@@H](O)C(O)O[C@@H]3CO)O[C@@H]2CO)[C@H](O)[C@@H](O)[C@@H]1N[C@H]1C=C(CO)[C@@H](O)[C@H](O)[C@H]1O (some centres not stated) [ACARBOSE]
Not Active: IC50 [1] | IC50 [2] | IC50 [3] | Ki [3] | IC50 [5] | IC50 [6] | IC50 [7] | Ki [7]

NC12CC3CC(CC(C3)C1)C2 [AMANTADINE]
4.66: pKi ([7]; read-out: Ki)
Not Active: IC50 [1] | IC50 [2] | IC50 [3] | Ki [3] | IC50 [5] | IC50 [6]
4.50: pIC50 ([7]; read-out: IC50)

CC(C)c1c(C(=O)Nc2ccccc2)c(-c2ccccc2)c(-c2ccc(F)cc2)n1CC[C@@H](O)C[C@@H](O)CC(=O)O [ATORVASTATIN]
Not Active: IC50 [1] | IC50 [2] | IC50 [3] | Ki [3] | IC50 [5] | IC50 [6] | IC50 [7] | Ki [7]

C[C@H]1[C@H](NC(=O)/C(=N\OC(C)(C)C(=O)O)c2csc(N)n2)C(=O)N1S(=O)(=O)O [AZTREONAM]
Not Active: IC50 [1] | IC50 [2] | IC50 [3] | Ki [3] | IC50 [5] | IC50 [6] | IC50 [7] | Ki [7]

COc1cc(OC)c(C(=O)CCCN2CCCC2)c(OC)c1 [BUFLOMEDIL]
Not Active: IC50 [1] | IC50 [2] | IC50 [3] | Ki [3] | IC50 [5] | IC50 [6] | IC50 [7] | Ki [7]

Cn1c(=O)c2c(ncn2C)n(C)c1=O [CAFFEINE]
Not Active: IC50 [1] | IC50 [2] | IC50 [3] | Ki [3] | IC50 [5] | IC50 [6] | IC50 [7] | Ki [7]

CO/N=C(\C(=O)N[C@@H]1C(=O)N2C(C(=O)O)=C(COC(C)=O)CS[C@H]12)c1csc(N)n1 [CEFOTAXIME]
Not Active: IC50 [1] | IC50 [2] | IC50 [3] | Ki [3] | IC50 [5] | IC50 [6] | IC50 [7] | Ki [7]

Cc1cc(O)cc(C)c1Cl [CHLOROXYLENOL]
Not Active: IC50 [1] | IC50 [2] | IC50 [3] | Ki [3] | IC50 [5] | IC50 [6] | IC50 [7] | Ki [7]

NS(=O)(=O)c1cc(C2(O)NC(=O)c3ccccc32)ccc1Cl (configuration not stated) [CHLORTHALIDONE]
Not Active: IC50 [1] | IC50 [2] | IC50 [3] | Ki [3] | IC50 [5] | IC50 [6] | IC50 [7] | Ki [7]

COc1cccc2c1C(=O)c1c(O)c3c(c(O)c1C2=O)C[C@@](O)(C(C)=O)C[C@@H]3O[C@H]1C[C@H](N)[C@H](O)[C@H](C)O1 [DAUNORUBICIN]
Not Active: IC50 [1] | IC50 [2] | IC50 [3] | Ki [3] | IC50 [5] | IC50 [6] | IC50 [7] | Ki [7]

C[S+](C)[O-] [DIMETHYL SULFOXIDE]
Not Active: IC50 [1] | IC50 [2] | IC50 [3] | Ki [3] | IC50 [5] | IC50 [6] | IC50 [7] | Ki [7]

C[C@]12CC[C@@H]3c4ccc(O)cc4CC[C@H]3[C@@H]1C[C@@H](O)[C@@H]2O [ESTRIOL]
Not Active: IC50 [1] | IC50 [2] | IC50 [3] | Ki [3] | IC50 [5] | IC50 [6] | IC50 [7] | Ki [7]

C#C[C@]1(O)CC[C@H]2[C@@H]3CCC4=CC(=O)CC[C@]4(C)[C@H]3CC[C@@]21C [ETHISTERONE]
Not Active: IC50 [1] | IC50 [2] | IC50 [3] | Ki [3] | IC50 [5] | IC50 [6] | IC50 [7] | Ki [7]

CC(O)(P(=O)(O)O)P(=O)(O)O [ETIDRONIC ACID]
Not Active: IC50 [1] | IC50 [2] | IC50 [3] | Ki [3] | IC50 [5] | IC50 [6] | IC50 [7] | Ki [7]

O=C(O)P(=O)(O)O [FOSCARNET]
Not Active: IC50 [1] | IC50 [2] | IC50 [3] | Ki [3] | IC50 [5] | IC50 [6] | IC50 [7] | Ki [7]

O=c1c(-c2ccc(O)cc2)coc2cc(O)cc(O)c12 [GENISTEIN]
Not Active: IC50 [1] | IC50 [2] | IC50 [3] | Ki [3] | IC50 [5] | IC50 [6] | IC50 [7] | Ki [7]

C[N+](C)(C)C[C@H](O)CC(=O)[O-] [LEVOCARNITINE]
Not Active: IC50 [1] | IC50 [2] | IC50 [3] | Ki [3] | IC50 [5] | IC50 [6] | IC50 [7] | Ki [7]

C[C@H]1COc2c(N3CCN(C)CC3)c(F)cc3c(=O)c(C(=O)O)cn1c23.C[C@H]1COc2c(N3CCN(C)CC3)c(F)cc3c(=O)c(C(=O)O)cn1c23.O [LEVOFLOXACIN]
Not Active: IC50 [1] | IC50 [2] | IC50 [3] | Ki [3] | IC50 [5] | IC50 [6] | IC50 [7] | Ki [7]

CN(C)C(=N)NC(=N)N [METFORMIN]
Not Active: IC50 [1] | IC50 [2] | IC50 [3] | Ki [3] | IC50 [5] | IC50 [6] | IC50 [7] | Ki [7]

CS(=O)(=O)Nc1ccc([N+](=O)[O-])cc1Oc1ccccc1 [NIMESULIDE]
Not Active: IC50 [1] | IC50 [2] | IC50 [3] | Ki [3] | IC50 [5] | IC50 [6] | IC50 [7] | Ki [7]

COc1ccc2c(c1OC)C(=O)O[C@@H]2[C@H]1c2c(cc3c(c2OC)OCO3)CCN1C [NOSCAPINE]
Not Active: IC50 [1] | IC50 [2] | IC50 [3] | Ki [3] | IC50 [5] | IC50 [6] | IC50 [7] | Ki [7]

NC(=O)N1c2ccccc2CC(=O)c2ccccc21 [OXCARBAZEPINE]
Not Active: IC50 [1] | IC50 [2] | IC50 [3] | Ki [3] | IC50 [5] | IC50 [6] | IC50 [7] | Ki [7]

CCN(CC)CCNC(=O)c1ccc(N)cc1 [PROCAINAMIDE]
Not Active: IC50 [1] | IC50 [2] | IC50 [3] | Ki [3] | IC50 [5] | IC50 [6] | IC50 [7] | Ki [7]
